These results are taken from article PMC10391610, “Survivin prevents the polycomb repressor complex 2 from methylating histone 3 lysine 27” (iScience, 2023).

One test deals with T1, survivin (Homo sapiens, UniProt O15392).
T1 construct: transferred to the survivin1-142 construct used in the present study; His8 tag (pHIS8 vector, thrombin-cleavable); made in house; host or cells: E. coli BL21(DE3) star
In words: PEPperCHIP peptide microarray, survivin interaction. To be noted: 1 μg/mL survivin; for Average FI (%): anti-His tag DyLight680 read-out, percentage of maximum fluorescence intensity units (64193) per peptide; for Average FI (%) / Integrated FI: 15-mer microarray peptides covering the residues; for Integrated FI: in units of the maximum FI per peptide; for survivin interaction / fluorescence on microarray (in words): peptide microarray. It counts as binding. An excerpt:
We were looking for potential direct interactions between survivin and short peptide sequences originating from PRC2 subunits and other proteins involved in histone modifications based on the in vivo results. Therefore, we created a peptide microarray of overlapping peptides obtained from EZH2, EED, SUZ12, and JARID2 to investigate how survivin interacts with the activity of the PRC2 complex. These subunits form the core of PRC2, and the interaction of survivin with the PRC2 molecular scaffold indicates a potentially disruptive role for survivin in PRC2 function. The fluorescence signal generated by labeled survivin is compared in Figure 2 as a function of position along the polypeptide chain of PRC2 subunits. Figure S1 depicts the raw fluorescence images. Moreover, the microarray fluorescence intensities projected on the three-dimensional structure of the PRC2 core complex are shown in Figure 3. The whole dataset is deposited at the Zenodo data base.
The location of survivin on the peptide microarray was clearly correlated with the amino acid content of the peptide at 1 μg/mL survivin concentration. When evaluating how accurate the predictions were, one should keep in mind that the primary and higher-order structures of the peptide were not at all considered in this analysis. Mislabeling peptides is possible for multiple reasons. The smallest fluorescence signal was chosen as the limit of detection and photon-counting errors may cause weak interactions to be undetected at low fluorescence intensities. Moreover, if the fluorescence intensity of experimental duplicates varied by more than 40%, a peptide was classified as non-interacting even if the lack of reproducibility is ambiguous evidence for the lack of interaction. […] Reducing the number of hidden layer perceptrons from 100 (the default value) to 9 had no effect on the classifier’s performance. Even a 15 amino acid peptide segment composition gives a high degree of uniqueness and highly scalable intensity for survivin-peptide interaction. Survivin has a non-globular structure with no deep binding pockets.
A peptide microarray was designed using the protein sequences from: Cdk1 (P06493), KAT2A/GCN5 (Q92830), SPI1/PU1 (P17947), SUZ12 (Q15022), EED (O75530), JADE3 (Q92613), DIABLO/SMAC (Q9NR28), BOREALIN (Q53HL2), INCENP (Q9NQS7), SGOL1 (Q5FBB7), SGOL2 (Q562F6), EZH2 (Q15910), JARID2 (Q92833), Histone H3 (P68431), AURORAKB (Q96GD4), JADE1 (Q6IE81), JTB (O76095), EVI5 (O60447), RAN (P62826), USP9X (Q93008), C-IAP1 (Q13490), STAT3 (P40763), BRUCE/APOLLON (Q9NR09), XPO1 (O14980), CDX2 (Q99626), Msx2 (P35548), RBM15 (Q96T37), PHF21A (Q96BD5), PHF8 (Q9UPP1), DIDO (Q9BTC0), JADE2 (Q9NQC1) and HASPIN (Q8TF76). The Uniprot ID is shown in parenthesis. The protein sequences were divided into 15 amino acid long peptides with a 10 amino acid overlap. To investigate background interactions with the protein-derived peptides that could interfere with the main assays, one of the PEPperCHIP Peptide Microarrays (PEPperPRINT Gmbh) was pre-staining with the secondary 6x His Tag Antibody DyLight680 antibody at a dilution of 1:1000 and with the monoclonal anti-HA (12CA5)-DyLight800 control antibody at a dilution of 1:1000. Subsequent incubation of other peptide microarray copies with survivin at a concentration of 1 μg/ml in incubation buffer was followed by staining with the secondary 6x His Tag Antibody DyLight680 antibody (Rockland Immunochemicals, Pottstown, PA, USA) and the monoclonal anti-HA (12CA5)-DyLight800 control antibody (Rockland Immunochemicals, Pottstown, PA, USA). The read-out was performed by scanning intensities of 7/7 (red/green). As an internal quality control, HA and His tag control peptides were stained simultaneously to confirm assay quality and to facilitate grid alignment for data quantification. The LI-COR Odyssey Imaging System was used for read-out, and the PepSlide Analyzer was used for quantification of spot intensities and peptide annotation. […]

The target in the next test is T2, [U-15N]-survivin (Homo sapiens, UniProt O15392).
T2 construct: transferred to the survivin1-142 construct used in the present study; His8 tag (pHIS8 vector, thrombin-cleavable); made in house; host or cells: E. coli BL21(DE3) star, M9 medium with 15NH4Cl
T2 sequence (O15392 whole entry): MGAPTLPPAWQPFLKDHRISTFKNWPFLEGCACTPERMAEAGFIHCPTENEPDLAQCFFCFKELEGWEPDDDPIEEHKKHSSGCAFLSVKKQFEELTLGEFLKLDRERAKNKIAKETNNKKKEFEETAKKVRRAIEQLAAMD
The test can be described thus: NMR titration of [U-15N]-survivin with PRC2-derived peptides. Type of test: binding. To be noted: for NMR cpc (critical peptide concentration): 300 μM [U-15N]-survivin, 50 mM Tris, 150 mM NaCl, 1 mM DTT, pH 7.5, 298 K, Bayesian logistic fit (Table 3); for <L>: logistic function parameter L; for <L> / <b> / <k>: posterior mean (Table S10); for <b>: logistic function parameter b; for <k>: logistic function parameter k. How it is done: Uniformly [U] labeled [U-^15N] survivin was produced in H2O-based M9 medium[69] containing ^15NH4Cl as the sole nitrogen and in case of or [U-^15N,^13C] survivin D-(^13C)-glucose was additionally added as the sole carbon source, respectively (Sigma-Aldrich). Expression was induced with 0.5 mM IPTG and continued for 20–22 h at 15°C. Cell harvesting and subsequent purification followed the same protocol as for unlabeled survivin.
NMR measurements were performed on Bruker (Fällanden, Switzerland) AvanceIII 800 MHz spectrometers running Topspin 3.5 or 3.6, respectively, equipped with cryogenically cooled triple resonance probes. All NMR experiments were performed in NMR buffer (50 mM Tris, 150 mM NaCl, 1 mM DTT, pH 7.5) and at 298 K. The sequence-specific backbone assignment of survivin1-117 was taken from previously published assignment,[50] and transferred to the survivin1-142 construct used in the present study. Existing resonance assignments were confirmed, and additional resonances were assigned in a sequence-specific manner by the following experiments: [^1H,^15N]-TROSY HSQC,[70] BEST-TROSY-type HNCA and HNCO experiments.[71]
The peptides were synthetized and purified to 95% by Biomatik. The peptides were titrated into ^15N labelled survivin (0.3 mM). Standard 2D [^15N,^1H]-SOFAST-HMQC[72] experiments were recorded with inter-scan delays of 200 ms and 1025 x 256 complex points for the ^1H and ^15N dimensions, respectively, for the titrations of the different peptides with [U-^15N] survivin.
For the global analysis, the NMR signal strength was quantified by summing the 200 highest values in each 2D NMR spectrum to ensure that all peaks corresponding to the different amino acid residues in survivin are potentially covered. The titration curve was modelled using a Bayesian machine learning approach using the python library pymc3.[66] The logistic function was chosen due to computational convenience. The most important parameter of this function was coined “critical peptide concentration (cpc)” and its logarithm was modelled using a uniform a priori distribution between −10 and 1. p(log10cpc|lower=−10,upper=1)=1/upper−lower
The modelling errors related to the choice of function affect the analysis of different peptides similarly. Therefore, the relative magnitude of cpc in comparison is more reliable than the absolute magnitude of cpc itself. The concentration values were converted to dimensionless quantities by dividing with 1 mM and the NMR signal intensity was normalized for the concentration range studied.
A deterministic sigmoid (logistic) function was used to model signal decay as a function of peptide concentration. Additional a priori assumptions of the function parameters were the following: p(k|lower=−10,upper=10)=1/upper−lower p(L|lower=−3,upper=3)=1/upper−lower p(b|lower=−10,upper=10)=1/upper−lower
1000 posterior samples were collected in four parallel chains using the No-U-Turn sampling algorithm (NUTS) after 2000 tuning steps/chain.[83] The default sampling parameters were used except for “target accept” parameter, which was increased to 0.95. For the final analysis the 1000 samples from the four chains were merged to yield 4000 samples.

T1 sequence (O15392 whole entry): as above

Take “PLRPQEMEVDSEDEKDPEWLREKTI [SUZ12_573-597, PRC2-derived peptide, SUZ12 residues 573–597, synthesized by Biomatik]”: at survivin, the “Average FI (%)” value amounted to 20%, the “Integrated FI” value stood at 0.6 and the “survivin interaction / fluorescence on microarray (in words)” value (shortened to “survivin interaction / fluorescence”) is recorded as “high survivin-associated fluorescence intensity”. In addition, in test [U-15N]-survivin, the “NMR cpc (critical peptide concentration)” value amounted to 0.0066 µM, the “<L>” value is -0.59, the “<b>” value is given as 0.87 and the “<k>” value turned out to be 0.99.
Regarding “PNSMVYFGSSQDEEEVEEEDDETED [JARID2_170-194, PRC2-derived peptide, JARID2 residues 170–194, synthesized by Biomatik]”, at survivin, the “Average FI (%)” value is 100%, the “Integrated FI” value was determined as 3.00 and the “survivin interaction / fluorescence” value was “high survivin-associated fluorescence intensity”. In addition, in test [U-15N]-survivin, the “NMR cpc (critical peptide concentration)” value amounted to 0.0085 µM, the “<L>” value was -0.53, the “<b>” value is reported as 0.79 and the “<k>” value is on record as 1.25.
As to “SQGEIRLLQSYVDADADENFYTCAW [EED128-152, PRC2-derived peptide, EED residues 128–152, synthesized by Biomatik]”, at survivin, the “Average FI (%)” value is 10%, the “Integrated FI” value was 0.31 and the “survivin interaction / fluorescence” value is on record as “high survivin-associated fluorescence intensity”. Besides, in test [U-15N]-survivin, the “NMR cpc (critical peptide concentration)” value is 0.0076 µM, the “<L>” value is given as -0.00, the “<b>” value was determined as 0.51 and the “<k>” value is recorded as -0.01.
